Experimental data from US20160066610A1, “METHODS FOR ENHANCING AGED MUSCLE REGENERATION” (ABBOTT LABORATORIES, priority 2013, published 2016).
Values joined by “and” are separate entries in the source; they are usually repeats but may differ in a detail not shown here. Identical values can stand only once.

System: FGF2
Test: Intramuscular FGF2 in gastrocnemius muscle lysates after 8 weeks of dietary supplementation, aged SD rat model of sarcopenia
Assay type: in vivo, Sprague Dawley (SD) rat
Conditions: for level of intramuscular FGF2, individual rat / level of intramuscular FGF2, AVE: aged (21 month) SD rats, gastrocnemius lysate, end of 8 week study, EGCg 50 mg/kg bw; for level of intramuscular FGF2, individual rat: Ca-HMB 340 mg/kg bw in AIN-93M diet, one value per rat (Rat 1-10); for % Change from Control (intramuscular FGF2): group average vs control diet AIN-93M, 8 weeks; for level of intramuscular FGF2, AVE: group average, Ca-HMB 340 mg/kg bw
Procedure: Example 3 illustrates the effect of 8 weeks of dietary supplementation in the aged Sprague Dawley (SD) rat model of sarcopenia. More particularly, the level of intramuscular FGF2 in gastrocnemius muscle lysates of aged SD rats (21 month) were analyzed and compared. The four experimental groups included:
1) control group: fed AIN-93M (purified diet);
2) EGCg group: fed AIN-93M+EGCg (Teavigo®-DSM-50 mg/kg bw);
3) HMB group: fed AIN-93M+Ca-HMB (340 mg/kg bw); and
4) HMB+EGCg group: fed AIN-93M+Ca-HMB (340 mg/kg bw)+EGCg (Teavigo®-50 mg/kg bw).
A total of 40 rats were divided equally among the four groups. Whole gastrocnemius muscles were collected from euthanized rats and flash frozen in liquid nitrogen. Approximately 200 mg tissue was obtained from each muscle by mechanical biopsy punch. Specimens were then pulverized on liquid nitrogen and transferred to 15 mL conical tube and weighed. A mild, detergent free lysis buffer (9×) was added to the dried specimen in the conical tube. 9× Lysis buffer (50 mM Tris.HCl, 2 mM EDTA, pH 7.4/NaOH) was supplemented with a mammalian protease inhibitor cocktail (Sigma) at a 1:200 dilution and stored on ice. The specimens were then vortexed again for 10 sec. and transferred to a 1.5 mL tube. Lysates were centrifuged/clarified for 5 min. at 11000 rpm at 4° C. in a standard table-top Eppendorf centrifuge. Supernatant (1 mL) was aliquotted to a 2 mL cryotube and stored at −80° C. Lystates were analyzed by Myriad Rules Based Medicine (Austin, Tex.) on the RodentMAP® v. 2.0 Antigens and Rat METABOLIC® multi-analyte profiling platforms.

Compound | level of intramuscular FGF2, individual rat | % Change from Control (intramuscular FGF2) [%] | level of intramuscular FGF2, AVE
CC(C)(O)CC(=O)O [HMB, beta-hydroxy-beta-methylbutyrate] | 15.0 ng/mL of lysate and 21.0 ng/mL of lysate and 6.1 ng/mL of lysate and 3.1 ng/mL of lysate and 4.3 ng/mL of lysate and 11.0 ng/mL of lysate and 4.0 ng/mL of lysate and 4.9 ng/mL of lysate | 18.8 | 8.68 ng/mL of lysate
epigallocatechin-3-gallate [EGCg] | 3.7 ng/mL of lysate (2×) and 16.0 ng/mL of lysate and 15.0 ng/mL of lysate and 9.9 ng/mL of lysate and 5.5 ng/mL of lysate and 3.1 ng/mL of lysate (3×) and 7.8 ng/mL of lysate | −2.9 | 7.09 ng/mL of lysate
